According to PubChem BioAssay AID248 (DTP/NCI, 2004):
Values joined by “and” are separate entries in the source; they are usually repeats but may differ in a detail not shown here. Equal entries are not always repeated. Inconclusive results and toxic doses are left out. Cut-off read from the data, not from the text of the source: active = T/C of 150% or more; inactive = T/C below 125%.

Tested on: L1210 leukemia ip in BDF1 mice, survival T/C
Experiment: NCI In Vivo Anticancer Drug Screen. Data for tumor model L1210 Leukemia (intraperitoneal) in B6D2F1 (BDF1) mice
Conditions: endpoint: mean survival time, higher = longer survival
Procedure, shortened: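 Antitumor effect is assessed in tumor-bearing animals. Survival in the compound arm is compared with a vehicle-dosed control arm and expressed as their quotient.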

[1] = dose: 100.0 mg/kg/injection, schedule: Q01DX001 (ip), vehicle: saline with Tween-80
[2] = dose: 100.0 mg/kg/injection, schedule: Q01DX009 (ip), vehicle: saline with Tween-80
[3] = dose: 200.0 mg/kg/injection, schedule: Q01DX001 (ip), vehicle: saline with Tween-80
[4] = dose: 200.0 mg/kg/injection, schedule: Q01DX009 (ip), vehicle: saline with Tween-80
[5] = dose: 100.0 mg/kg/injection, schedule: Q04DX002 (ip), vehicle: saline with Tween-80
[6] = dose: 200.0 mg/kg/injection, schedule: Q04DX002 (ip), vehicle: saline with Tween-80
[7] = dose: 75.0 mg/kg/injection, schedule: Q01DX009 (ip), vehicle: Klucel (hydroxypropylcellulose) (HPC)
[8] = dose: 150.0 mg/kg/injection, schedule: Q01DX009 (ip), vehicle: Klucel (hydroxypropylcellulose) (HPC)
[9] = dose: 100.0 mg/kg/injection, schedule: Q04DX003 (ip), vehicle: saline with Tween-80
[10] = dose: 200.0 mg/kg/injection, schedule: Q04DX003 (ip), vehicle: saline with Tween-80
[11] = dose: 400.0 mg/kg/injection, schedule: Q04DX003 (ip), vehicle: saline with Tween-80
[12] = dose: 100.0 mg/kg/injection, schedule: Q04DX003 (ip), vehicle: Klucel (hydroxypropylcellulose) (HPC)
[13] = dose: 200.0 mg/kg/injection, schedule: Q04DX003 (ip), vehicle: Klucel (hydroxypropylcellulose) (HPC)
[14] = dose: 400.0 mg/kg/injection, schedule: Q04DX003 (ip), vehicle: Klucel (hydroxypropylcellulose) (HPC)
[15] = dose: 50.0 mg/kg/injection, schedule: Q04DX003 (ip), vehicle: saline with Tween-80
[16] = dose: 100.0 mg/kg/injection, schedule: Q01DX001 (ip), vehicle: saline
[17] = dose: 100.0 mg/kg/injection, schedule: Q01DX009 (ip), vehicle: saline
[18] = dose: 200.0 mg/kg/injection, schedule: Q01DX001 (ip), vehicle: saline
[19] = dose: 100.0 mg/kg/injection, schedule: Q01DX001 (ip), vehicle: other
[20] = dose: 200.0 mg/kg/injection, schedule: Q01DX001 (ip), vehicle: other
[21] = dose: 400.0 mg/kg/injection, schedule: Q01DX001 (ip), vehicle: other

Measured: T/C

CC1(C)OC2OC(C(O)CSCc3ccccc3)C(O)C2O1 (stereo unspecified)
inactive: dose: 50.0 mg/kg/injection, schedule: Q01DX009 (ip), vehicle: saline with Tween-80 94 % of control | [1] 92 % of control | [2] 93 % of control | [3] 89 % of control | [4] 97 % of control

Oc1ccc2ccccc2c1N=Nc1ccc(N=Nc2ccccc2)cc1
inactive: [2] 102 % of control | [4] 106 % of control | dose: 400.0 mg/kg/injection, schedule: Q01DX009 (ip), vehicle: saline with Tween-80 102 % of control

CN1CN2c3ccccc3CCC2C2CCCC21 (stereo unspecified)
inactive: dose: 50.0 mg/kg/injection, schedule: Q04DX002 (ip), vehicle: saline with Tween-80 104 % of control | [5] 96 % of control | [6] 101 % of control

C[C@]12CC[C@@H]3c4ccc(OCC(=O)O)cc4CC[C@H]3[C@@H]1CCC2=O
inactive: [7] 97 % of control | [8] 90 % of control

N#Cc1ccc[n+]([O-])c1
inactive: [9] 100 % of control | [10] 101 % of control | [11] 97 % of control

CN(C)C1=NS(=O)(=O)N=C(N(C)c2ccccc2)O1
inactive: dose: 100.0 mg/kg/injection, schedule: Q01DX001 (ip), vehicle: Klucel (hydroxypropylcellulose) (HPC) 109 % of control | [12] 97 % of control | dose: 200.0 mg/kg/injection, schedule: Q01DX001 (ip), vehicle: Klucel (hydroxypropylcellulose) (HPC) 101 % of control | [13] 105 % of control | dose: 400.0 mg/kg/injection, schedule: Q01DX001 (ip), vehicle: Klucel (hydroxypropylcellulose) (HPC) 103 % of control | [14] 103 % of control

Cc1ccc([As+](c2ccccc2)(c2ccccc2)c2ccccc2)cc1
inactive: dose: 5.0 mg/kg/injection, schedule: Q01DX001 (ip), vehicle: saline 101 % of control | dose: 10.0 mg/kg/injection, schedule: Q01DX001 (ip), vehicle: saline 95 % of control | dose: 20.0 mg/kg/injection, schedule: Q01DX001 (ip), vehicle: saline 96 % of control

CONC(=O)Nc1cccc2ccccc12
inactive: dose: 75.0 mg/kg/injection, schedule: Q01DX001 (ip), vehicle: other 100 % of control | dose: 75.0 mg/kg/injection, schedule: Q04DX003 (ip), vehicle: other 97 % of control | dose: 150.0 mg/kg/injection, schedule: Q01DX001 (ip), vehicle: other 110 % of control | dose: 150.0 mg/kg/injection, schedule: Q04DX003 (ip), vehicle: other 96 % of control | dose: 300.0 mg/kg/injection, schedule: Q01DX001 (ip), vehicle: other 106 % of control | dose: 300.0 mg/kg/injection, schedule: Q04DX003 (ip), vehicle: other 100 % of control

O=C1CC2CCC1C2Cl (stereo unspecified)
inactive: [15] 86 % of control | [1] 97 % of control | [3] 89 % of control

CC(C)/C(=N\N=C(\c1ccccc1)C(C)C)c1ccccc1
inactive: [5] 94 % of control | [6] 87 % of control | dose: 400.0 mg/kg/injection, schedule: Q04DX002 (ip), vehicle: saline with Tween-80 97 % of control

CN=Cc1ccc([N+](=O)[O-])cc1
inactive: dose: 75.0 mg/kg/injection, schedule: Q01DX001 (ip), vehicle: Klucel (hydroxypropylcellulose) (HPC) 91 % of control | [7] 96 % of control | dose: 150.0 mg/kg/injection, schedule: Q01DX001 (ip), vehicle: Klucel (hydroxypropylcellulose) (HPC) 91 % of control | [8] 105 % of control | dose: 300.0 mg/kg/injection, schedule: Q01DX001 (ip), vehicle: Klucel (hydroxypropylcellulose) (HPC) 96 % of control | dose: 300.0 mg/kg/injection, schedule: Q01DX009 (ip), vehicle: Klucel (hydroxypropylcellulose) (HPC) 95 % of control

CC(=O)/C=C\c1ccc([N+](=O)[O-])o1
inactive: dose: 100.0 mg/kg/injection, schedule: Q04DX002 (ip), vehicle: Klucel (hydroxypropylcellulose) (HPC) 115 % of control | dose: 200.0 mg/kg/injection, schedule: Q04DX002 (ip), vehicle: Klucel (hydroxypropylcellulose) (HPC) 89 % of control

O=[N+]([O-])c1ccc2nc(-c3ccc(S(=O)(=O)F)cc3)cc(Cl)c2c1
inactive: [9] 98 % of control | [10] 106 % of control | [11] 98 % of control

CC(C)(CS(C)(=O)=O)C(=O)O
inactive: [16] 98 % of control | [17] 89 % of control | [18] 98 % of control | dose: 400.0 mg/kg/injection, schedule: Q01DX001 (ip), vehicle: saline 101 % of control | dose: 400.0 mg/kg/injection, schedule: Q01DX009 (ip), vehicle: saline 91 % of control

CC/C=N\N=C(N)N
inactive: dose: 15.0 mg/kg/injection, schedule: Q01DX Z (ip), vehicle: saline 101 % of control | dose: 30.0 mg/kg/injection, schedule: Q01DX Z (ip), vehicle: saline 106 % of control | dose: 60.0 mg/kg/injection, schedule: Q01DX Z (ip), vehicle: saline 100 % of control | dose: 120.0 mg/kg/injection, schedule: Q01DX010 (oral), vehicle: saline 94 % of control | dose: 120.0 mg/kg/injection, schedule: Q01DX Z (ip), vehicle: saline 100 % of control | dose: 240.0 mg/kg/injection, schedule: Q01DX010 (oral), vehicle: saline 98 % of control | dose: 240.0 mg/kg/injection, schedule: Q01DX Z (ip), vehicle: saline 95 % of control

Cc1cc(C)c(C#[N+][O-])c(C)c1
inactive: dose: 25.0 mg/kg/injection, schedule: Q04DX003 (ip), vehicle: saline with Tween-80 93 % of control | [15] 98 % of control

C=CNC(=O)Oc1ccccc1
inactive: [19] 96 % of control | [20] 100 % of control | [21] 91 % of control

CC(C)CC(C)NCCOC(=O)c1ccc(N)cc1 (stereo unspecified)
inactive: dose: 9.38 mg/kg/injection, schedule: Q01DX001 (ip), vehicle: other 104 % of control | dose: 18.75 mg/kg/injection, schedule: Q01DX001 (ip), vehicle: other 96 % of control | dose: 37.5 mg/kg/injection, schedule: Q01DX001 (ip), vehicle: other 106 % of control | dose: 75.0 mg/kg/injection, schedule: Q01DX001 (ip), vehicle: carboxymethylcellulose (CMC) 96 % of control

Cc1c[n+]([O-])ccc1[N+](=O)[O-]
inactive: dose: 25.0 mg/kg/injection, schedule: Q01DX009 (ip), vehicle: saline 90 % of control | dose: 25.0 mg/kg/injection, schedule: Q04DX003 (ip), vehicle: saline 105 % of control | dose: 50.0 mg/kg/injection, schedule: Q01DX009 (ip), vehicle: saline 90 % of control | dose: 50.0 mg/kg/injection, schedule: Q04DX003 (ip), vehicle: saline 97 % of control | [17] 88 % of control | dose: 100.0 mg/kg/injection, schedule: Q04DX003 (ip), vehicle: saline 90 % of control and 91 % of control

NNC(=O)c1ccccc1CO
inactive: [1] 100 % of control | [3] 103 % of control

O=C(NCCF)NC1CCSCC1
inactive: [19] 112 % of control | [20] 103 % of control | [21] 98 % of control

O=S(c1ccc(O)cc1)c1ccc(O)cc1
inactive: [9] 99 % of control | [10] 94 % of control | [11] 101 % of control

ClC1CCC[N-]C1.ClC1CCC[N-]C1.[Cl][Pt+2][Cl] (stereo unspecified)
inactive: [15] 102 % of control | [9] 104 % of control | [10] 102 % of control

NNc1ccccc1
inactive: [16] 105 % of control | [18] 111 % of control

Cc1ccc(/C=C\C(=O)c2ccccc2)cc1
inactive: [12] 100 % of control | [13] 96 % of control | [14] 102 % of control

O=C(CNC(=O)C(CSCc1ccccc1)NC(=O)OCc1ccccc1)OCc1ccccc1 (stereo unspecified)
inactive: dose: 25.0 mg/kg/injection, schedule: Q01DX009 (ip), vehicle: gum acacia 92 % of control | dose: 50.0 mg/kg/injection, schedule: Q01DX009 (ip), vehicle: gum acacia 87 % of control | dose: 100.0 mg/kg/injection, schedule: Q01DX009 (ip), vehicle: gum acacia 94 % of control | [12] 89 % of control | [14] 99 % of control
